Tests used:
AGPase = assay: Allosteric effect of 3-PGA on AGPase activity in oilseed rape embryo; assay type: biochemical, Brassica napus
Procedure: The intermediates PEP and 3-PGA are known to allosterically affect enzymatic activity of ATP-dependent PFK and AGPase, respectively.
[…] 500 μl of common extraction buffer [10% (v/v) glycerol, 0.25% (w/v) BSA, 0.1% (v/v) Triton X-100, 50 mM Hepes/KOH, pH 7.5, 10 mM MgCl2, 1 mM EDTA, 1 mM EGTA, 1 mM benzamidine, 1 mM ε-aminocapronic acid, 1 mM phenylmethylsulfonyl fluoride (PMSF), […], 1 mM dithiothreitol (DTT)] and c. 10 mg polyvinyl pyrrolidone. PMSF was added just before extraction. DTT was omitted when using peroxidase-based or MTT-based indicator reactions (MTT: methylthiazolyldiphenyl-tetrazolium bromide). A 96-head liquid handling robot (Evolution P3, Perkin Elmer, Wellesey, Mass., USA) was used to perform subsequent dilutions of these initial extracts and to load extracts on to 96-well micro plates. During this process micro plates were maintained at 4° C. using peltier cooled blocks. […] The concentration of the products of these stopped reactions (NAD+, NADH, NADPH or glycerol-3-phosphate) was then determined using cycling assays. […] Nitrate reductase and glutamine synthetase were determined using end point assays (Gibon et al, 2004, supra). […] After measuring PK activity at pH 8.0 and at pH 6.7, the plastidic and cytosolic activities were calculated accordingly.

ATP-dependent PFK = assay: Allosteric effect of PEP on ATP-dependent PFK activity in oilseed rape embryo; assay type: biochemical, Brassica napus
[1] = test system: PPi-PFKs of Thermoproteus tenax, Naegleria fowleri, Methylococcus capsulatus or Amycolatopsis methanolica; settings: Reshetnikov et al. 2008; Alves et al.; cited from earlier work

Structure (SMILES)	effect on enzymatic activity of AGPase (AGPase)	effect on enzymatic activity of ATP-dependent PFK (ATP-dependent PFK)	inhibition of PPi-PFK by PEP [1]
O=C(O)[C@H](O)COP(=O)(O)O [3-PGA, 3-phosphoglycerate]	clear activity changes		
C=C(OP(=O)(O)O)C(=O)O [PEP, phosphoenolpyruvate]		clear activity changes	not inhibited
